“Also recorded” adds a separate entry of the source. Where two headings read alike, the source gives them in different places.
What was measured:
[1] = target: T1, dihydropyrimidinase from P. aeruginosa PAO1 (Pseudomonas aeruginosa, UniProt Q9I676); experiment: Spectrophotometric enzyme assay: inhibition of dihydropyrimidinase; type: biochemical; conditions: for Inhibitory effect on dihydropyrimidinase activity: 5-propyl-hydantoin or dihydrouracil as substrate
Procedure: (§1) A rapid spectrophotometric assay was used to determine the enzymatic activity according to a previously described protocol for hydantoinase, allantoinase, dihydroorotase, and imidase. Dihydrouracil, 5-propyl-hydantoin, and phthalimide were used as substrates. Unless explicitly stated otherwise, dihydrouracil (2 mM) was used as the substrate in the standard assay of dihydropyrimidinase. Briefly, the decrease in absorbancy at 230, 248, and 298 nm was measured upon hydrolysis of dihydrouracil, 5-propyl-hydantoin, and phthalimide as the substrate at 25°C, respectively. To start the reaction, the purified dihydropyrimidinase (10–70 μg) was added to a 2 mL solution containing the substrate and 100 mM Tris–HCl (pH 8.0). Substrate hydrolysis was monitored with a UV/vis spectrophotometer (Hitachi U 3300, Hitachi High-Technologies, Tokyo, Japan). The extinction coefficient of each substrate was determined experimentally by direct measurement with a spectrophotometer. The extinction coefficients of dihydrouracil, 5-propyl-hydantoin, and phthalimide were 0.683 mM^-1cm^-1 at 230 nm, 0.0538 mM^-1cm^-1 at 248 nm, and 3.12 mM^-1cm^-1 at 298 nm, respectively. The initial rates of change were a function of enzyme concentration within the absorbance range of 0.01–0.18 min^-1. A unit of activity was defined as the amount of enzyme catalyzing the hydrolysis of 1 μmol substrate/min, and the specific activity was expressed in terms of units of activity per milligram of enzyme. The kinetic parameters K m and V max were determined from a non-linear plot by fitting the hydrolyzing rate from individual experiments to the Michaelis–Menten equation (Enzyme Kinetics module of Sigma-Plot; Systat Software, Chicago, IL, USA).

[2] = target: T1, dihydropyrimidinase from P. aeruginosa PAO1; experiment: Substrate specificity / Michaelis-Menten kinetics of dihydropyrimidinase; type: biochemical; conditions: for Fold: V max/K m relative to dihydrouracil; for K m / V max / V max/K m: compound as substrate
Procedure: as §1

[3] = target: T1, dihydropyrimidinase from P. aeruginosa PAO1; type: biochemical
[4] = target: P. aeruginosa dihydropyrimidinase (Pseudomonas aeruginosa, UniProt Q9I676); experiment: Fluorescence quenching of wild-type dihydropyrimidinase; type: binding; conditions: for Quenching of intrinsic fluorescence / Red shift in emission wavelength: wild-type enzyme; for Quenching of intrinsic fluorescence: 50 μM compound; for Red shift in emission wavelength: λmax from 333.5 nm
Procedure: (§2) The dissociation constants (K d) of dihydropyrimidinase was determined using the fluorescence quenching method as previously described for allantoinase, dihydroorotase, and DnaB helicase. An aliquot of each compound was added into the solution containing dihydropyrimidinase (0.8 μM), 50 mM HEPES at pH 7.0. The decrease in intrinsic fluorescence of protein was measured at 334.5 nm upon excitation at 279 nm and 25°C with a spectrofluorimeter (Hitachi F-2700; Hitachi High-Technologies, Tokyo, Japan). At least seven data points were used to calculate each K d. Each data point was an average of 2–3 determinants, and the difference of the determinants was within 10%. The K d was obtained by the equation: ΔF = ΔFmax-K d(ΔF/[compound]) (Enzyme Kinetics module of Sigma-Plot; Systat Software, Chicago, IL, USA).

[5] = target: N337A mutant of P. aeruginosa dihydropyrimidinase (Pseudomonas aeruginosa, UniProt Q9I676, N337A); experiment: Fluorescence quenching of the N337A mutant; type: binding, Pseudomonas aeruginosa PAO1; conditions: for Red shift in λmax: N337A mutant, from 333.5 nm
Procedure: The dihydropyrimidinase mutants (H59A, H61A, K150A, Y155A, H183A, H239A, S289A, D316A, and N337A) were generated according to the manufacturer’s protocol (Stratagene, LaJolla, CA). The presence of the mutation was verified by DNA sequencing in each construct.
as §2

[6] = substrate and inhibitor analogs of other cyclic amidohydrolases, read-out: IC50
[7] = metal ion 1 mM added to reaction mixture, enzyme purified without metal supplement, dihydrouracil substrate
[8] = specific activity relative to no metal added, metal ion 1 mM
[9] = 40 μM dihydromyricetin, dihydrouracil substrate
[10] = IC50, 5-propyl-hydantoin as substrate
[11] = IC50, dihydrouracil as substrate

T1 sequence (Q9I676 whole entry): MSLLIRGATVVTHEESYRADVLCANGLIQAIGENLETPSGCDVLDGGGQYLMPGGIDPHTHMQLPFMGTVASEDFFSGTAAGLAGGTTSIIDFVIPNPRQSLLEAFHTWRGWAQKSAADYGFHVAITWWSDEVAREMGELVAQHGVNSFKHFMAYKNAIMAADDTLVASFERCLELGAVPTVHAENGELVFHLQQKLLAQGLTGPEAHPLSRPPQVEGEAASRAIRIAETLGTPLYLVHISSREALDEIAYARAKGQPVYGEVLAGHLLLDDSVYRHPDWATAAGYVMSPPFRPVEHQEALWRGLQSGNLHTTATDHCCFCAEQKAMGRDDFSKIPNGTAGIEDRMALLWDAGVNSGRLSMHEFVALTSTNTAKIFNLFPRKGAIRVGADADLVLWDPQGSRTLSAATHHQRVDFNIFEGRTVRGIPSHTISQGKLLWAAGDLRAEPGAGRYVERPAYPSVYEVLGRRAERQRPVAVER
Sequence of P. aeruginosa dihydropyrimidinase (Q9I676 whole entry): as above
Sequence of N337A mutant of P. aeruginosa dihydropyrimidinase (Q9I676 whole entry N337A): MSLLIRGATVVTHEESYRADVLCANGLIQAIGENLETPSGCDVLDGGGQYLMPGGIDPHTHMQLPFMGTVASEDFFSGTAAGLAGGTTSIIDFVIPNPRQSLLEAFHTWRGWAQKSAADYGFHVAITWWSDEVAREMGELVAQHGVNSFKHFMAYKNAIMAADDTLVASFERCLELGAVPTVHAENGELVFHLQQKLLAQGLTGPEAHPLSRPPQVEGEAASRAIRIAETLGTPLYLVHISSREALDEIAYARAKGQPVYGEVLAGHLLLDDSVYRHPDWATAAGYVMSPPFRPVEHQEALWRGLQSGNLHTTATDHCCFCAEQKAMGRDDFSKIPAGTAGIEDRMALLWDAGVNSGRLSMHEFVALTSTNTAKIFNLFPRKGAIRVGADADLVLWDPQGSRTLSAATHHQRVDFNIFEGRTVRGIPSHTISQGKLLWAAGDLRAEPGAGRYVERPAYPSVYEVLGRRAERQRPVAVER

For `Nc1nc[nH]n1` [3-amino-1,2,4-triazole], the “Concentration that affected enzyme activity” value [1] was 100 to 750 mM, the “IC50 range” value [1] was “within the millimolar range” and the “Inhibitory effect on dihydropyrimidinase activity” value [1] was “slightly inhibit”.

With `O=C(O)CC1NC(=O)NC1=O` (centres unmarked) [5-hydantoin acetic acid] the “IC50 range” value [1] was “within the millimolar range”, the “Inhibitory effect on dihydropyrimidinase activity” value [1] was “only slightly inhibit” and the IC50 [1, 6] was ~50000 µM.

With `CCCC1NC(=O)NC1=O` (centres unmarked) [5-propyl-hydantoin] the “Catalytic efficiency toward dihydrouracil higher than toward this substrate” value [2] was 100 fold, the Fold [2] was 0.01 and the K m [2] was 8100 ± 1500 µM. For the same compound, the V max [2] was 1.2 ± 0.1 µmol/mg/min and the “V max/K m” value [2] was 0.15.

For `[Ca+2].[Cl-].[Cl-]` [CaCl2], the “Effect of metal addition on dihydropyrimidinase activity” value (“Effect of metal addition” below) ([3]; 1 mM added to reaction mixture) was “not useful”, the Specific activity [3, 7] was 0.82 ± 0.05 µmol/mg/min and the Fold [3, 8] was 1.0.

With `[Cl][Cd][Cl]` [CdCl2] the “Effect of metal addition” value ([3]; 1 mM added to reaction mixture) was “not useful”, the Specific activity [3, 7] was 0.74 ± 0.04 µmol/mg/min and the Fold [3, 8] was 0.9.

`[Cl-].[Cl-].[Co+2]` [CoCl2] was tested, and the “Effect of metal addition” value [3] was “activated”, the Fold [3] was 7.1 and the Specific activity [3] was 5.80 ± 0.16 µmol/mg/min. The “Specific activity toward dihydrouracil” value [3] was 5.9 ± 0.4 µmol/mg/min.

In the case of `[Cl-].[Cl-].[Mg+2]` [MgCl2], the “Effect of metal addition” value ([3]; 1 mM added to reaction mixture) is reported as “not useful”, the Specific activity [3, 7] is reported as 0.82 ± 0.05 µmol/mg/min and the Fold [3, 8] is reported as 1.0.

With `[Cl][Mn][Cl]` [MnCl2] the “Effect of metal addition” value ([3]; 1 mM added to reaction mixture) was “activated”, the Specific activity [3, 7] was 1.72 ± 0.09 µmol/mg/min and the Fold [3, 8] was 2.1.

`[Cl][Ni][Cl]` [NiCl2] was tested, and the “Effect of metal addition” value ([3]; 1 mM added to reaction mixture) was “not useful”, the Specific activity [3, 7] was 0.91 ± 0.06 µmol/mg/min and the Fold [3, 8] was 1.1.

For `[Cl-].[Cl-].[Zn+2]` [ZnCl2], the “Effect of metal addition” value ([3]; 1 mM added to reaction mixture) was “activated”, the Specific activity [3, 7] was 2.90 ± 0.10 µmol/mg/min and the Fold [3, 8] was 3.5.

For `CC(=O)NO` [acetohydroxamate], the “IC50 range” value [1] was “within the millimolar range” and the “Inhibitory effect on dihydropyrimidinase activity” value [1] was “only slightly inhibit”.

With `NC(=O)NC1NC(=O)NC1=O` (centres unmarked) [allantoin] the “IC50 range” value [1] was “within the millimolar range”, the “Inhibitory effect on dihydropyrimidinase activity” value [1] was “slightly inhibit; also recorded: only slightly inhibited” and the K m [2] was “Not hydrolyzed”. For the same compound, the V max [2] was “Not hydrolyzed”.

In the case of `O=C1c2c(O)cc(O)cc2O[C@H](c2cc(O)c(O)c(O)c2)[C@H]1O` [dihydromyricetin], the “Inhibition stronger than the substrate analogs” value [1] is reported as > 3 orders of magnitude, the “K m in the presence of inhibitor” value [1, 9] is reported as 1600 ± 200 µM and the “V max in the presence of inhibitor” value [1, 9] is reported as 5.4 ± 0.4 µmol/mg/min. For the same compound, the “Type of inhibition (Lineweaver-Burk plot)” value ([1]; 40 μM inhibitor, different concentrations of dihydrouracil) was “competitive inhibitor”, the “Inhibitory effect on dihydropyrimidinase activity” value [1] was “significant inhibitory effect” and the IC50 [1, 10] was 40 µM. For the same compound, the IC50 [1, 11] was 48 µM, the Kd [4] was 22.6 µM and the “Quenching of intrinsic fluorescence” value [4] was 89.1%. For the same compound, the “Red shift in emission wavelength” value [4] was ~ 25 nm, the Kd [5] was 24.1 ± 1.7 µM and the “Red shift in λmax” value [5] was ~ 23.5 nm.

For `O=C1CC(C(=O)O)NC(=O)N1` (centres unmarked) [dihydroorotate], the “IC50 range” value [1] was “within the millimolar range”, the “Inhibitory effect on dihydropyrimidinase activity” value [1] was “slightly inhibit; also recorded: only slightly inhibited” and the IC50 [1, 6] was ~30000 µM. The K m [2] was “Not hydrolyzed” and the V max [2] was “Not hydrolyzed”.

`O=C1CCNC(=O)N1` [dihydrouracil] was tested, and the Fold [2] was 1.0, the K m [2] was 700 ± 100 µM and the V max [2] was 7.6 ± 0.4 µmol/mg/min. The “V max/K m” value [2] was 10.9.

For `O=c1c(O)c(-c2ccc(O)cc2)oc2cc(O)cc(O)c12` [kaempferol], the “Inhibitory effect” value ([1]; 5-propyl-hydantoin as substrate) was “only slightly inhibited”, the “Inhibitory effect” value ([1]; dihydrouracil as substrate) was “significant” and the IC50 ([1]; dihydrouracil as substrate, read-out: IC50) was 50 ± 2 µM.

In the case of `O=c1c(O)c(-c2cc(O)c(O)c(O)c2)oc2cc(O)cc(O)c12` [myricetin], the “Inhibitory effect on dihydropyrimidinase activity” value [1] is reported as “strongly inhibit”, the IC50 [1, 10] is reported as 63 ± 3 µM and the IC50 [1, 11] is reported as 83 ± 3 µM. For the same compound, the “Inhibitory effect” value ([1]; dihydrouracil as substrate) was “significant”, the Kd [4] was 28.8 ± 2.2 µM and the “Quenching of intrinsic fluorescence” value [4] was 56.2%. For the same compound, the “Red shift in emission wavelength” value [4] was ~ 7 nm and the “Red shift in λmax” value [5] was ~ 7.5 nm.

`O=C(O)c1cc(=O)[nH]c(=O)[nH]1` [orotic acid] was tested, and the “IC50 range” value [1] was “within the millimolar range” and the “Inhibitory effect on dihydropyrimidinase activity” value [1] was “slightly inhibit”.

With `O=C1NC(=O)c2ccccc21` [phthalimide] the “Catalytic efficiency toward dihydrouracil higher than toward this substrate” value [2] was “fourfold”, the Fold [2] was 0.25 and the K m [2] was 1000 ± 300 µM. For the same compound, the V max [2] was 2.7 ± 0.6 µmol/mg/min and the “V max/K m” value [2] was 2.7.

For `O=c1c(O)c(-c2ccc(O)c(O)c2)oc2cc(O)cc(O)c12` [quercetin], the “Inhibitory effect on dihydropyrimidinase activity” value [1] was “insignificant”.

With myricitrin the “Inhibitory effect on dihydropyrimidinase activity” value [1] was “No effect”.
